The supplement of paper PMC10307832

What was measured:
Assay in all cases: relative viability (nuclei count vs DMSO), 5 days (fraction); higher = more cells survive
FH535 + Pictilisib = compound: CC1=C(C=CC(=C1)[N+](=O)[O-])NS(=O)(=O)C2=C(C=CC(=C2)Cl)Cl [FH535] + CS(=O)(=O)N1CCN(Cc2cc3nc(-c4cccc5[nH]ncc45)nc(N4CCOCC4)c3s2)CC1 [Pictilisib] (partner 1 µM)
How it was run: (§1)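 Lung cancer cell lines were pin-tool dosed in 1536-well plates on the day after seeding, with either a lone drug or a fixed anchor-drug dose plus five library-drug doses (not always all listed) in √10 steps. Nuclei were counted on 4× images after 5 days. Relative viability is the ratio of treated-well to vehicle-well nuclei counts, with each value a median of duplicate plates.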

FH535 + Trametinib = compound: CC1=C(C=CC(=C1)[N+](=O)[O-])NS(=O)(=O)C2=C(C=CC(=C2)Cl)Cl [FH535] + CC(=O)Nc1cccc(-n2c(=O)n(C3CC3)c(=O)c3c(Nc4ccc(I)cc4F)n(C)c(=O)c(C)c32)c1 [Trametinib] (partner 0.02 µM)
How it was run: as §1

FH535 + AZD7762 = compound: CC1=C(C=CC(=C1)[N+](=O)[O-])NS(=O)(=O)C2=C(C=CC(=C2)Cl)Cl [FH535] + NC(=O)Nc1cc(-c2cccc(F)c2)sc1C(=O)N[C@H]1CCCNC1 [AZD7762] (partner 0.2 µM)
How it was run: as §1

FH535 + Olaparib = compound: CC1=C(C=CC(=C1)[N+](=O)[O-])NS(=O)(=O)C2=C(C=CC(=C2)Cl)Cl [FH535] + O=C(c1cc(Cc2n[nH]c(=O)c3ccccc23)ccc1F)N1CCN(C(=O)C2CC2)CC1 [Olaparib] (partner 8 µM)
How it was run: as §1

FH535 + Crizotinib = compound: CC1=C(C=CC(=C1)[N+](=O)[O-])NS(=O)(=O)C2=C(C=CC(=C2)Cl)Cl [FH535] + C[C@@H](Oc1cc(-c2cnn(C3CCNCC3)c2)cnc1N)c1c(Cl)ccc(F)c1Cl [Crizotinib] (partner 1 µM)
How it was run: as §1

Row | Cell Line | relative viability (FH535 + Pictilisib; first compound 0.04 µM) | relative viability (FH535 + Pictilisib; first compound 0.1265 µM) | relative viability (FH535 + Pictilisib; first compound 0.4 µM) | relative viability (FH535 + Pictilisib; first compound 1.265 µM) | relative viability (FH535 + Trametinib; first compound 0.04 µM) | relative viability (FH535 + Trametinib; first compound 0.1265 µM) | relative viability (FH535 + Trametinib; first compound 0.4 µM) | relative viability (FH535 + Trametinib; first compound 1.265 µM) | relative viability (FH535 + AZD7762; first compound 0.04 µM) | relative viability (FH535 + AZD7762; first compound 0.1265 µM) | relative viability (FH535 + AZD7762; first compound 0.4 µM) | relative viability (FH535 + AZD7762; first compound 1.265 µM) | relative viability (FH535 + Olaparib; first compound 0.04 µM) | relative viability (FH535 + Olaparib; first compound 0.1265 µM) | relative viability (FH535 + Olaparib; first compound 0.4 µM) | relative viability (FH535 + Olaparib; first compound 1.265 µM) | relative viability (FH535 + Crizotinib; first compound 0.04 µM) | relative viability (FH535 + Crizotinib; first compound 0.1265 µM) | relative viability (FH535 + Crizotinib; first compound 0.4 µM) | relative viability (FH535 + Crizotinib; first compound 1.265 µM)
1 | NCI-H650 | 0.766 | 0.972 | 0.959 | 0.643 | 0.887 | 0.953 | 1.04 | 0.795 | 0.877 | 1.03 | 1.18 | 0.67 | 0.384 | 0.341 | 0.369 | 0.249 | 0.694 | 0.854 | 0.738 | 0.567
2 | HCC-15 | 0.672 | 0.668 | 0.674 | 0.594 | 0.288 | 0.358 | 0.406 | 0.316 | 1.18 | 1.21 | 1.06 | 1.13 | 0.702 | 0.706 | 0.688 | 0.519 | 0.798 | 0.819 | 0.747 | 0.52
3 | NCI-H2126 | 0.472 | 0.497 | 0.472 | 0.425 | 0.541 | 0.624 | 0.535 | 0.392 | 0.973 | 1.05 | 0.857 | 0.874 | 0.928 | 0.896 | 0.822 | 0.525 | 0.976 | 0.984 | 0.941 | 0.683
4 | NCI-H2085 | 0.407 | 0.568 | 0.481 | 0.486 | 0.567 | 0.624 | 0.503 | 0.403 | 1.03 | 1.06 | 0.783 | 0.828 | 0.818 | 0.713 | 0.749 | 0.571 | 1.03 | 0.969 | 0.705 | 0.695
